From ChEMBL document CHEMBL3046808, “Novel 2-(E)-substituted benzylidene-6-(N-substituted aminomethyl)cyclohexanones and cyclohexanols as analgesic and anti-inflammatory agents” (2013) come the findings set out here.

Type in all cases: functional
Test [1] has as its system Rattus norvegicus. The test is described as follows: Anti-inflammatory activity in Wistar Rattus norvegicus (rat) assessed as inhibition of carrageenan-induced paw edema at 200 mg/kg, po administered 1 hr prior to carrageenan-challenge measured after 3 hr relative to untreated control. (In general: Carrageenan injected into the paw causes an acute inflammation.)
Test [2] has as its system Mus musculus. The test can be described thus: Anti-inflammatory activity in Kunming Mus musculus (mouse) assessed as inhibition of xylene-induced ear swelling at 200 mg/kg, po administered 1 hr prior to xylene challenge measured after 30 min relative to untreated control.
Test [3] has as its system Mus musculus. The test is described as follows: Analgesic activity in Kunming Mus musculus (mouse) assessed as increase in pain threshold at 200 mg/kg, po after 1 hr by hot plate method (reference value: 4.2%). Background: Hot-plate and tail-flick tests time the reaction to a heat stimulus.
Test [4] relates to Mus musculus. The test is described as follows: Analgesic activity in Kunming Mus musculus (mouse) assessed as inhibition of acetic acid-induced writhing at 200 mg/kg, po administered 1 hr prior to acetic acid challenge measured for 15 min relative to untreated control. For orientation: In writhing tests, fewer writhes than in controls are read as antinociception.

Consider `CN(CC1CCC/C(=C\c2ccccc2)C1=O)c1ccccc1` (configuration not stated), for which the inhibition in vivo at 200 mg/kg is 76.6% in test [1], 49.7% in test [2] and 69.7% in test [4]. The Activity in test [3] stood at 109.59%.

For the compound `COc1cccc(C2(O)/C(=C/c3ccccc3)CCCC2CN(C)c2cccc(C)c2)c1` (racemic), the inhibition in vivo at 200 mg/kg in test [1] was 44.7%; in test [2], 36%; in test [4], 79.9%. In addition, in test [3], the Activity is given as 116.52%.

In the case of `COc1cccc(C2(O)/C(=C/c3ccccc3)CCCC2CN(C)c2ccccc2)c1` (racemic), the inhibition in vivo at 200 mg/kg in test [1] turned out to be 38.3%; in test [2], 34.7%; in test [4] it was 82.2%. Further, the Activity in test [3] turned out to be 162.71%.

For `Cc1ccc(N(C)CC2CCC/C(=C\c3ccc(S(C)(=O)=O)cc3)C2=O)cc1` (configuration not stated), the inhibition in vivo at 200 mg/kg in test [1] stood at 31.9%; in test [2] it was 27%; in test [4] it was 84.5%. Further, in test [3], the Activity amounted to 155.12%.

As for `COc1cccc(C2(O)/C(=C/c3ccccc3)CCCC2CN(C)c2ccc(C)cc2)c1` (racemic), the figures for the inhibition in vivo at 200 mg/kg in test [1], in test [2] and in test [4] were 57.5%, 41.5% and 77.8%, respectively. Moreover, the Activity in test [3] was 110.54%.

On to `COc1ccc(C2(O)/C(=C/c3ccc(C)cc3)CCCC2CN(C)c2ccccc2)cc1` (racemic), for which the inhibition in vivo at 200 mg/kg is 17% in test [1], 16.3% in test [2] and 72.1% in test [4]. Besides, the Activity in test [3] came to 106.84%.

As to `CC(C)Cc1ccc(C(C)C(=O)O)cc1` (configuration not stated) [IBUPROFEN], the inhibition in vivo at 200 mg/kg in test [1] is 53.2%; in test [2], 40.1%; in test [4] it was 84.1%. Moreover, the Activity in test [3] worked out at 158.56%.

Consider `COc1ccc(C2(O)/C(=C/c3ccccc3)CCCC2CN(C)c2ccc(C)cc2)cc1` (racemic), for which the inhibition in vivo at 200 mg/kg is 21.3% in test [1], 26.5% in test [2] and 78.7% in test [4]. The Activity in test [3] turned out to be 117.46%.

As to `Cc1ccc(/C=C2\CCCC(CN(C)c3ccccc3)C2=O)cc1` (configuration not stated), the inhibition in vivo at 200 mg/kg in test [1] was found to be 44.7%; in test [2] it was 39.5%; in test [4], 68.2%. Also, in test [3], the Activity stood at 79.04%.

As for `Cc1ccc(/C=C2\CCCC(CN(C)c3cccc(C)c3)C2=O)cc1` (configuration not stated), the inhibition in vivo at 200 mg/kg was 36.2% in test [1], 35.4% in test [2] and 75.8% in test [4]. Further, the Activity in test [3] amounted to 75.5%.

Regarding `Cc1cccc(N(C)CC2CCC/C(=C\c3ccccc3)C2=O)c1` (configuration not stated), the inhibition in vivo at 200 mg/kg in test [1] stood at 46.8%; in test [2], 44.9%; in test [4], 76.7%. Besides, the Activity in test [3] is listed as 108.45%.

As to `COc1ccc(C2(O)/C(=C/c3ccc(C)cc3)CCCC2CN(C)c2ccc(C)cc2)cc1` (racemic), the values for the inhibition in vivo at 200 mg/kg in test [1], in test [2] and in test [4] were 29.8%, 29.9% and 62.2%, respectively. Moreover, the Activity in test [3] was found to be 93.41%.

For `Cc1cccc(N(C)CC2CCC/C(=C\c3ccccc3)C2(O)c2ccccc2)c1` (racemic), the inhibition in vivo at 200 mg/kg in test [1] was found to be 36.2%; in test [2], 23.1%; in test [4], 70.6%. In addition, the Activity in test [3] worked out at 83.22%.

In the case of `Cc1cccc(N(C)CC2CCC/C(=C\c3ccc(S(C)(=O)=O)cc3)C2=O)c1` (configuration not stated), the figures for the inhibition in vivo at 200 mg/kg in test [1], in test [2] and in test [4] were 36.2%, 36.7% and 72.8%, respectively. For the same compound, in test [3], the Activity amounted to 109.98%.

On to `COc1ccc(C2(O)/C(=C/c3ccccc3)CCCC2CN(C)c2ccccc2)cc1` (racemic), for which the inhibition in vivo at 200 mg/kg in test [1] amounted to 38.3%; in test [2], 26.5%; in test [4] it was 75.7%. The Activity in test [3] is 121.45%.

As for `Cc1ccc(N(C)CC2CCC/C(=C\c3ccccc3)C2=O)cc1` (configuration not stated), the inhibition in vivo at 200 mg/kg is 25.5% in test [1], 18.2% in test [2] and 81% in test [4]. Besides, in test [3], the Activity stood at 146.12%.

Turning to `CN(CC1CCC/C(=C\c2ccc(S(C)(=O)=O)cc2)C1=O)c1ccccc1` (configuration not stated), the inhibition in vivo at 200 mg/kg was found to be 51.1% in test [1], 46.9% in test [2] and 81% in test [4]. For the same compound, in test [3], the Activity amounted to 142.7%.

On to `COc1cccc(C2(C)/C(=C/c3ccc(C)cc3)CCCC2CN(C)c2ccccc2)c1` (racemic), for which the figures for the inhibition in vivo at 200 mg/kg in test [1], in test [2] and in test [4] were 25.5%, 18% and 80.9%, respectively. Moreover, the Activity in test [3] is reported as 153.01%.

Take `Cc1ccc(NCC2CCC/C(=C\c3ccccc3)C2=O)cc1` (configuration not stated): the values for the inhibition in vivo at 200 mg/kg in test [1], in test [2] and in test [4] were 72.3%, 56.4% and 82.8%, respectively. Besides, the Activity in test [3] worked out at 166.19%.

Turning to `Cc1ccc(/C=C2\CCCC(CN(C)c3ccc(C)cc3)C2=O)cc1` (configuration not stated), the values for the inhibition in vivo at 200 mg/kg in test [1], in test [2] and in test [4] were 38.3%, 27.6% and 76.5%, respectively. Also, in test [3], the Activity was 71.6%.

In the case of `COc1cccc(C2(O)/C(=C/c3ccc(C)cc3)CCCC2CN(C)c2ccc(C)cc2)c1` (racemic), the inhibition in vivo at 200 mg/kg is 21.3% in test [1], 22.9% in test [2] and 81.6% in test [4]. For the same compound, the Activity in test [3] amounted to 125.34%.

As to `COc1ccc(C2(O)/C(=C/c3ccc(C)cc3)CCCC2CN(C)c2cccc(C)c2)cc1` (racemic), the figures for the inhibition in vivo at 200 mg/kg in test [1], in test [2] and in test [4] were 29.8%, 24.5% and 74.2%, respectively. Moreover, the Activity in test [3] is 93.52%.

Consider `Cc1ccc(N(C)CC2CCC/C(=C\c3ccccc3)C2(O)c2ccccc2)cc1` (racemic), for which the inhibition in vivo at 200 mg/kg in test [1] was 59.6%; in test [2], 66.7%; in test [4] it was 64.2%. For the same compound, the Activity in test [3] is 70.08%.

Usually inhibition in vivo stands for how much of the control response was suppressed.
